The source of these data is patent publication EP2289553A1 (ETH Zurich, priority 2009, dated 2011).

Where two headings read alike, the source gives them in different places.

A short description of series [1]: pKa determination by titration. It is filed as physicochemical. Particulars: titration in Millipore water containing 150 mM NaCl, for nitrocatechols and mimosine one of the pKa values. On the procedure: pKa determination: 2 mM of the respective anchoring group was dissolved in Millipore water containing 150 mM NaCl. These solutions were titrated with 0.1 M HCl and NaOH respectively using a SevenMulti pH meter (Mettler Toledo, Switzerland).

Series [2] is described as follows: Dispersant binding reversibility: successive filtrations and re-dispersions in HEPES, followed by DLS. It is filed as physicochemical. Particulars: room temperature, anchor named, coupled to PEG(MW 5 kDa). The protocol:
DLS: DLS experiments were run on a Zetasizer Nano ZS (Malvern, UK) in the 173° backscattering mode. Because intensity weighted diameters scale with r^6 and thus large particles are predominant, volume weighted data which scale with r^3 were analyzed using the multiple narrow modes evaluation incorporated into the Malvern software. Temperature dependent DLS experiments have been performed in HEPES at an iron oxide nanoparticle concentration of 200 µg/ml. Solutions were filtered with 200 nm Minisart syringe filters (Sartorius, Germany) prior to DLS analysis. These suspensions were heated from 25 to 90°C in 5°C steps with 10 min equilibration time before the respective DLS experiment. The dispersant binding reversibility was tested on iron oxide nanoparticle HEPES solutions (500 µg/ml) at room temperature. Solutions were repeatedly filtered using Microcon filters with a cut-off of 30 kDa (Millipore, MA, USA) by centrifuging these solutions at […] for 20 min (MiniSpin, Vaudaux Eppendorf, Switzerland). After filtration, the filter cake was re-suspended in HEPES (0.5 ml) and equilibrated for 24 h at room temperature before the next DLS experiment was performed.
The binding reversibility of these dispersants was tested by successive filtrations and re-dispersions of the resulting iron oxide nanoparticle filter cakes in HEPES

Turning to `NC(Cc1cc(O)c(O)cc1[N+](=O)[O-])C(=O)O` (stereo not shown), the pKa in series [1] (read-out: pKa) was ~6.5. Moreover, the “number of filtrations for which nanoparticles remained stable” value in series [2] is recorded as “more than 9 filtrations”.

Take `N[C@@H](Cc1ccc(O)c(O)c1)C(=O)O` [DOPA]: the pKa in series [1] (read-out: pKa) was > 9. Further, in series [2], the “number of filtrations within which nanoparticles agglomerated” value is listed as 5-7 filtrations.

Consider `NCCc1ccc(O)c(O)c1` [dopamine], for which, in series [1] (read-out: pKa), the pKa was > 9. Moreover, the “number of filtrations within which nanoparticles agglomerated” value in series [2] is listed as 0-3 filtrations.

Consider `NC(Cn1ccc(=O)c(O)c1)C(=O)O` (stereo not shown) [mimosine], for which the pKa in series [1] (read-out: pKa) is ~6.5. Moreover, the “number of filtrations within which nanoparticles agglomerated” value in series [2] is 5-7 filtrations.

Regarding `NCCc1cc(O)c(O)cc1[N+](=O)[O-]` [nitrodopamine], in series [1], the pKa entry is on record as “around 6.5”.

As for hydroxydopamine, the pKa in series [1] is > 9. Further, the “number of filtrations within which nanoparticles agglomerated” value in series [2] is reported as 0-3 filtrations.

As for hydroxypyridine, in series [2], the “number of filtrations within which nanoparticles agglomerated” value is reported as 0-3 filtrations.

As for hydroxypyrone, the “number of filtrations within which nanoparticles agglomerated” value in series [2] is recorded as 0-3 filtrations.
